Patent publication US4288432A, “Novel enkephalin analogs and process for the preparation thereof” (Richter Gedeon Vegyeszeti Gyar Rt., priority 1979, dated 1981)
Non-standard residues stand in square brackets, D forms with d. Residues, ends and D or L forms follow the SMILES beside them. *: point of attachment. Tyr(Nα-amidino) = N=C(N)N[C@@H](Cc1ccc(O)cc1)C(=O)*; dNle = CCCC[C@@H](N)C(=O)O

Experiments:
Assay type in all cases: cell-based
mouse vas deferens (MVD) = assay: MVD assay according to Hughes et al. (opiate activity); settings: mouse vas deferens preparation; assay of Hughes et al. 1975; relative to normorphine = 1.0
Excerpt: (§1) 39, 398 (1970)] and in mouse ves deferens (MVD) preparations [J. Hughes et al.: Br. J. Pharmacol. 53, 371 (1975)]. […] The figures represent the activities of compounds relative to […] (the activity of normorphine is taken as unity=1.0).
^c MVD assay according to Hughes et al. [Br. J. Pharmacol. 53, 371

guinea-pig ileum (GPI) [1] = assay: GPI assay according to Kosterlitz et al. (opiate activity); settings: guinea-pig ileum preparation; assay of Kosterlitz et al. 1970; relative to normorphine = 1.0
Excerpt: as §1
^b GPI assay according to Kosterlitz et al. [Br. J. Pharmacol. 39, 39

guinea-pig ileum (GPI) [2] = assay: GPI assay according to Kosterlitz and Watt (opiate activity); settings: guinea-pig ileum preparation; assay of Kosterlitz and Watt 1968; relative to normorphine = 1.0
Excerpt: as §1
^a GPI assay according to Kosterlitz and Watt [Br.J. Pharmacol. 33,

SMILES	Opiate activity MVD^c (opiate activity of normorphine = 1.0) (mouse vas deferens (MVD))	Opiate activity GPI^b (opiate activity of normorphine = 1.0) (guinea-pig ileum (GPI) [1])	Opiate activity GPI^a (opiate activity of normorphine = 1.0) (guinea-pig ileum (GPI) [2])
CSCC[C@@H](NC(=O)[C@H](Cc1ccc(O)cc1)NC(=N)N)C(=O)NCC(=O)N[C@@H](Cc1ccccc1)C(N)=O [H2 N-C-(NH)-Tyr-D-Met-Gly-Phe-NH2, amidino-L-tyrosyl-D-methionyl-glycyl-L-phenylalanine amide]	21	79	211
CSCC[C@@H](NC(=O)[C@H](Cc1ccc(O)cc1)NC(=N)N)C(=O)NCC(=O)N[C@@H](Cc1ccccc1)C(=O)N1CCC[C@H]1C(N)=O [H2 N-C-(NH)-Tyr-D-Met-Gly-Phe-Pro-NH2, amidino-L-tyrosyl-D-methionyl-glycyl-L-phenylalanyl-L-proline amide] ({Tyr(Nα-amidino)}-[dM]GFP-NH2)	25	173	825
CCCC[C@@H](NC(=O)[C@H](Cc1ccc(O)cc1)NC(=N)N)C(=O)NCC(=O)N[C@@H](Cc1ccccc1)C(N)=O [H2 N-C-(NH)-Tyr-D-Nle-Gly-Phe-NH2, amidino-L-tyrosyl-D-norleucyl-glycyl-L-phenylalanine amide]	18	79	126
CCCC[C@@H](NC(=O)[C@H](Cc1ccc(O)cc1)NC(=N)N)C(=O)NCC(=O)N[C@@H](Cc1ccccc1)C(=O)N1CCC[C@H]1C(N)=O [H2 N-C-(NH)-Tyr-D-Nle-Gly-Phe-Pro-NH2, amidino-L-tyrosyl-D-norleucyl-glycyl-L-phenylalanyl-L-proline amide] ({Tyr(Nα-amidino)}-[dNle]GFP-NH2)	17	21	79
CC(=O)O.CSCC[C@@H](NC(=O)[C@@H](N)Cc1ccc(O)cc1)C(=O)NCC(=O)N[C@@H](Cc1ccccc1)C(N)=O.O [H-Tyr-D-Met-Gly-Phe-NH2, L-Tyrosyl-D-methionyl-glycyl-L-phenylalanine amide acetate hydrate] (H-Y[dM]GF-NH2)	4	17	17
CC(=O)O.CSCC[C@@H](NC(=O)[C@@H](N)Cc1ccc(O)cc1)C(=O)NCC(=O)N[C@@H](Cc1ccccc1)C(=O)N1CCC[C@H]1C(N)=O.O.O.O [H-Tyr-D-Met-Gly-Phe-Pro-NH2, L-tyrosyl-D-methionyl-glycyl-L-phenylalanyl-proline amide acetate trihydrate] (H-Y[dM]GFP-NH2)	8	8	8
CC(=O)O.CCCC[C@@H](NC(=O)[C@@H](N)Cc1ccc(O)cc1)C(=O)NCC(=O)N[C@@H](Cc1ccccc1)C(N)=O.O [H-Tyr-D-Nle-Gly-Phe-NH2, L-Tyrosyl-D-norleucyl-glycyl-L-phenylalanine amide acetate hydrate] (H-Y[dNle]GF-NH2)	8	22	22
CC(=O)O.CCCC[C@@H](NC(=O)[C@@H](N)Cc1ccc(O)cc1)C(=O)NCC(=O)N[C@@H](Cc1ccccc1)C(=O)N1CCC[C@H]1C(N)=O.O [H-Tyr-D-Nle-Gly-Phe-Pro-NH2, L-Tyrosyl-D-norleucyl-glycyl-L-phenylalanyl-L-proline amide acetate hydrate] (H-Y[dNle]GFP-NH2)	10	12	12
